The results in this text go back to publication PMC7866972, “Crosstalk of Cancer Signaling Pathways by Cyclic Hexapeptides and Anthraquinones from Rubia cordifolia” (Molecules, 2021).

Holding throughout (format): cell-based
One assay has as its system Stat3. In words: Stat3 luciferase reporter assay (IL-6 induced). Particulars: Homo sapiens, HeLa cells. How it is done:
(§1) Hela cells from ATCC were plated in white opaque 384 well plates at a density of 4300 cells/well in 30 µL of a growth medium (DMEM with 10% FBS and 1% Pen/step). The next day, the medium was aspirated and replaced with DMEM containing 10% FBS. The cells were transfected with respective plasmids using the X-tremeGENE HP transfection reagent (Roche). Luciferase vectors used in this assay are summarized in Table S2, Supporting Information. After 24 h of transfection, the test agents were added to the transfected cells, followed 30 min later by an inducing agent (IL-6 for Stat 3, TGF-beta for Smad, m-wnt3a for Wnt and PMA for AP-1, NF-kB, E2F, Myc, ETS, Notch and Hedgehog). No inducer was added for FoXO, miR-21, and […]. After 4 h or 6 h of induction, the cells were lysed by the addition of the One-Glo luciferase assay system (Promega, Madison, WI, USA). The light output was detected in a Glomax Multi+ detection system with the Instinct Software (Promega, Madison, WI, USA). This luciferase assay determines if the test agent was able to inhibit the activation of cancer-related signaling pathways. In the case of FoxO and mi-R21, the enhanced luciferase activity by the test agent was assessed.

The test system of the next assay is Smad. In words: Smad luciferase reporter assay (TGF-beta induced). To be noted: Homo sapiens, HeLa cells. The procedure: as §1
A further assay has as its system Ap-1. In words: AP-1 luciferase reporter assay (PMA induced). To be noted: HeLa cells, compared to pTK as control, 4 h, read-out: percentage of luciferase induction Ap-1/PMA. How it is done:
as §1

For the next assay, the system named is NF-κB. In words: NF-κB luciferase reporter assay (PMA induced). Particulars: HeLa cells. How it is done: as §1
Another assay relates to E2F. In words: E2F luciferase reporter assay (PMA induced). Particulars: Homo sapiens, HeLa cells, compared to pTK as control, 4 h, read-out: percentage of luciferase induction E2F/PMA. How it is done:
as §1

Another assay concerns Myc. In words: Myc luciferase reporter assay (PMA induced). To be noted: Homo sapiens, HeLa cells. The procedure:
as §1

The subject of a further assay is Ets. In words: Ets luciferase reporter assay (PMA induced). To be noted: Homo sapiens, HeLa cells. The procedure: as §1
Another assay deals with Notch. In words: Notch luciferase reporter assay (PMA induced). Particulars: Homo sapiens, HeLa cells, compared to pTK as control, 6 h, read-out: percentage of luciferase induction Notch/PMA. How it is done:
as §1

The next assay deals with FoxO. In words: FoxO luciferase reporter assay (no inducer). Particulars: Homo sapiens, HeLa cells, 6 h, read-out: percentage of luciferase induction FoxO/No Induction. The procedure:
as §1

The next assay has as its system Wnt. In words: Wnt luciferase reporter assay (m-wnt3a induced). To be noted: Homo sapiens, HeLa cells. How it is done:
as §1

In a further assay the test system is Hedgehog. In words: Hedgehog luciferase reporter assay (PMA induced). Particulars: Homo sapiens, HeLa cells, compared to pTK as control, 6 h, read-out: percentage of luciferase induction Hdghog/PMA. How it is done:
as §1

In the next assay the test system is miR-21. In words: miR-21 luciferase reporter assay (no inducer). Particulars: Homo sapiens, HeLa cells, 6 h, read-out: percentage of luciferase induction mi-R21/No Induction. How it is done: as §1
The test system of the next assay is pTK control vector. In words: pTK control vector luciferase assay (minimal thymidine kinase promoter). Particulars: Homo sapiens, HeLa cells, no inducer, read-out: percentage of luciferase induction pTK/No Induction. The procedure:
as §1

Assay [1] has as its system cancer-related signaling pathways in HeLa cells. In words: Panel of luciferase reporter genes for cancer-related signaling pathways. Particulars: HeLa cells; 30 µM. The procedure: as §1
The simulated gastric fluid was prepared as described in the United States Pharmacopoeia (USP, 1995) and consists of 0.2% w/v of NaCl and 0.7% v/v of hydrochloric acid at pH 1.2. Aliquots (48 µL) of SGF were placed in 1.5-mL microcentrifuge tubes and incubated in a water bath at 37 °C [35]. In addition, 2 µL of compound 6 (10 mg/mL in DMSO) was added to each of the SGF vials to start the digestion reaction. The incubation was continued for 60 min and the digestion was stopped with 150 µL of ice-cold cell culture media. The digested samples were used for the cytotoxicity and luciferase assays at different concentrations and the activities were compared between the untreated and SGF treated peptide samples.

Where [2] appears, read: compared to pTK as control, 4 h, read-out: percentage of luciferase induction Stat3/IL-6.
[3] abbreviates: compared to pTK as control, 4 h, read-out: percentage of luciferase induction Smad/TGF-β.
Setting [4] is: Homo sapiens, compared to pTK as control, 4 h, read-out: percentage of luciferase induction NF-kB/PMA.
[5] abbreviates: compared to pTK as control, 4 h, read-out: percentage of luciferase induction Myc/PMA.
Setting [6] is: compared to pTK as control, 4 h, read-out: percentage of luciferase induction Ets/PMA.
[7] abbreviates: compared to pTK as control, 6 h, read-out: percentage of luciferase induction Wnt/m-wnt 3a.

Where only a bound is given, the exact number is not on record here.

Regarding `O=C1c2ccccc2C(=O)c2c1ccc(O)c2O` [Compound 1, alizarin], the activity at 30 µM was 81% in the assay with Stat3 (setting [2]); 109% with Smad (setting [3]); 87% in the assay with Ap-1; 60% in the assay on NF-κB (setting [4]); 172% in the assay on E2F; 61% with Myc (setting [5]). Further, the activity at 30 µM in the assay on Ets (setting [6]) amounted to 66%; in the assay on Notch, 106%; with FoxO, 69%; in the assay with Wnt (setting [7]), 46%; in the assay with Hedgehog it was 57%; in the assay with miR-21, 141%. Moreover, the activity at 30 µM with pTK control vector amounted to 116%. Moreover, the “activity towards the signaling pathways (in words)” value in assay [1] is “selective inhibition of Wnt and Hedgehog signaling pathways”.

Consider `O=C1c2ccccc2C(=O)c2c(O)c(O)cc(O)c21` [Compound 2, purpurin], for which the activity at 30 µM in the assay with Stat3 (setting [2]) was determined as 102%; with Smad (setting [3]) it was 163%; in the assay with Ap-1, 73%; in the assay on NF-κB (setting [4]) it was 65%; with E2F, 190%; in the assay on Myc (setting [5]), 61%. Moreover, the activity at 30 µM was determined as 103% with Ets (setting [6]); 194% in the assay with Notch; 94% in the assay on FoxO; 77% in the assay with Wnt (setting [7]); 152% in the assay on Hedgehog; 259% in the assay on miR-21. The activity at 30 µM in the assay with pTK control vector turned out to be 198%. In addition, the “activity towards the signaling pathways (in words)” value in assay [1] is “least active among these three anthraquinones”.

Consider `Cc1cc(O)c2c(c1)C(=O)c1cc(O)cc(O)c1C2=O` [Compound 3, emodin], for which the activity at 30 µM with Stat3 (setting [2]) came out at 48%; in the assay on Smad (setting [3]), 46%; with Ap-1, 45%; with NF-κB (setting [4]), 45%; with E2F it was 144%; in the assay with Myc (setting [5]) it was 46%. For the same compound, the activity at 30 µM in the assay on Ets (setting [6]) turned out to be 53%; in the assay with Notch, 424%; in the assay on FoxO it was 112%; with Wnt (setting [7]), 11%; in the assay with Hedgehog, 42%; in the assay with miR-21, 309%. For the same compound, in the assay with pTK control vector, the activity at 30 µM turned out to be 144%. Also, the “activity towards the signaling pathways (in words)” value in assay [1] is given as “inhibited the activation of several pathways with Wnt being the most sensitive”.

Consider `CC1(C)CCC2=C(O1)C(=O)c1ccccc1C2=O` [Compound 15, α-lapachone, reference compound], for which the activity at 5 µM came to 22% in the assay with Stat3 (5 µM, compared to pTK as control, 4 h, read-out: percentage of luciferase induction Stat3/IL-6); 27% in the assay with Smad (5 µM, compared to pTK as control, 4 h, read-out: percentage of luciferase induction Smad/TGF-β); 88% with Ap-1 (5 µM); 44% in the assay with NF-κB (Homo sapiens, 5 µM, compared to pTK as control, 4 h, read-out: percentage of luciferase induction NF-kB/PMA); 82% in the assay on E2F (5 µM); 44% in the assay on Myc (5 µM, compared to pTK as control, 4 h, read-out: percentage of luciferase induction Myc/PMA). Further, the activity at 5 µM with Ets (5 µM, compared to pTK as control, 4 h, read-out: percentage of luciferase induction Ets/PMA) came out at 45%; in the assay on Notch (5 µM), 85%; in the assay on FoxO (5 µM), 100%; in the assay on Wnt (5 µM, compared to pTK as control, 6 h, read-out: percentage of luciferase induction Wnt/m-wnt 3a), 53%; with Hedgehog (5 µM) it was 86%; with miR-21 (5 µM), 127%. The activity at 5 µM in the assay with pTK control vector (5 µM) turned out to be 97%. For the same compound, the inhibition at 5 µM in the assay on Stat3 (5 µM, read-out: inhibition of Stat3 induction) was over 50%; with Smad (5 µM, read-out: inhibition of Smad induction), over 50%; in the assay with Myc (5 µM, read-out: inhibition of Myc induction), over 50%; in the assay on Ets (5 µM, read-out: inhibition of ETS induction) it was over 50%; in the assay on Wnt (5 µM, read-out: inhibition of Wnt induction), over 50%. Further, in the assay with NF-κB (5 µM), the “inhibition of NF-kB induction” value is recorded as “more than 50%”.
